Assay results as given in ChEMBL document CHEMBL1157539, “Thousands of chemical starting points for antimalarial lead identification” (Nature, 2010).

System: Plasmodium falciparum
Experiment: GSK_TCMDC: Inhibition of Plasmodium falciparum 3D7 in whole erythrocytes, using parasite LDH activity as an index of growth.
Format: functional, organism-based
Conditions: Plasmodium falciparum, 3D7

SMILES | XC50
O=C(NCCCCN1CCN(c2nsc3ccccc23)CC1)c1ccccc1C(=O)NCCCCN1CCN(c2nsc3ccccc23)CC1 | 887 nM
Cc1cccc2nc(-c3ccc(-c4cccc(NC(=O)Nc5ccc(F)c(F)c5F)c4)cc3)[nH]c12 | 338 nM
COc1ccc(-c2cc(NCc3ccc(-n4ccnc4)cc3)nc(Nc3ccccc3)n2)cc1 | 966 nM
O=C(NCCCCN1CCC(O)(c2ccc3c(c2)OCO3)CC1)c1ccc(NC(=O)c2ccc(Cl)cc2)cc1 | 1180 nM
Cc1cc(Cl)ccc1N(Cc1ccccc1)c1ccnc(Cl)n1 | 859 nM
CC(=O)c1ccc(N2C(=O)C3C(Cc4ccc(OC(C)(C)C)cc4)NC4(C(=O)N(Cc5ccc(C(C)(C)C)cc5)c5ccccc54)C3C2=O)cc1 (stereo unspecified) | 1280 nM
COc1ccccc1Nc1nc(NC2CCN(C)CC2)cc(-c2cccc(C(F)(F)F)c2)n1 | 919 nM
CC(=O)Nc1ccc(C(=O)Nc2ccc(-c3csc(-c4nc5ccccc5[nH]4)c3)cc2)cn1 | 591 nM
CCCNCc1ccc(-c2ccc(CN(CCOC)C(=O)Cc3cccnc3)cc2)nc1 | 823 nM
Cc1[nH]c(C)c([N+](=O)[O-])c(=O)c1-c1ccc(Oc2ccc(OC(F)(F)F)cc2)cc1 | 247 nM
COc1cccc(CNC[C@@H](O)[C@H](Cc2ccccc2)NC(=O)c2cc(N3CCCC3=O)c3[nH]cc(C(C)C)c3c2)c1 | 529 nM
CN(C)CCN(C)Cc1cccc(-c2ccc3c(Nc4cc(O)c(Cl)cc4F)ccnc3c2)c1 | 237 nM
COc1cccc(NC(=O)Nc2cc(-c3ccc4[nH]ncc4c3)cc3c2CNC3=O)c1 | 117 nM
CC(C)(C)C(=O)Oc1ccc(CC2NCCc3cc(OC(=O)C(C)(C)C)c(OC(=O)C(C)(C)C)cc32)cc1OC(=O)C(C)(C)C (stereo unspecified) | 419 nM
O=[N+]([O-])c1ccc(-c2nc3cc(C4=NC5CCCCC5N4)ccc3[nH]2)cc1 (stereo unspecified) | 691 nM
Cc1cc(NC(=O)Nc2ccc3ccn(C)c3c2)c2ccccc2n1 | 214 nM
COc1ccccc1-n1c(-c2ccc3ccccc3c2)csc1=NC(=O)c1ccccc1 | 204 nM
CCc1c(C(=O)NC2CCC(N3CCC(c4ccccc4C)CC3)CC2)[nH]c2ccc(Br)cc12 (stereo unspecified) | 928 nM
O=C(Nc1ccc(Oc2ccccc2)cc1)N1CCC(CCN2CCC(c3c[nH]c4ccccc34)CC2)CC1 | 795 nM
COc1ccc(NC(=O)/C=C/c2ccccc2Cl)cc1OCCN1CCC(NCc2cccnc2)CC1 | 761 nM
CC(C)CC1(C(=O)OC(C)(C)C)CC(C(=O)OC(C)(C)C)C(c2cccs2)N1C(=O)c1ccc(C(C)(C)C)cc1 (stereo unspecified) | 137 nM
CCOc1cc(Cl)c(C(C)NC(=O)c2cccc(OC)c2)cc1OCC (stereo unspecified) | 956 nM
CCc1cn(C)c2c(N3CCCC3=O)cc(C(=O)N[C@@H](Cc3ccccc3)[C@H](O)CNC(C)(C)CCCC(C)C)cc12 | 487 nM
COc1ccc(NCc2cccc(-c3cccc(CNCCc4ccccc4)c3)c2)cc1 | 1050 nM

SMILES | XC50
Brc1cc(Br)c2c(c1)C(NCCCNc1nc3ncccc3[nH]1)CCN2 (stereo unspecified) | 595 nM
Fc1ccc2[nH]c(-c3cccc(-c4ccc(CN5CCC(CCN6CCCCC6)CC5)cc4)c3)nc2c1 | 142 nM
CC(C)c1ccc(NC(=O)N[C@H]2CCN(CCCCCNC(=O)/C=C/c3ccc(Cl)c(Cl)c3)C2)cc1 | 710 nM
CS(=O)(=O)CCNCc1cccc(-c2ccc3c(Nc4ccc(Oc5ccccc5)cc4)ccnc3c2)c1 | 691 nM
O=C(CCc1c[nH]cn1)Nc1ccc(-c2cccc(-c3nc4ccccc4[nH]3)c2)cc1 | 348 nM
Cc1nnsc1C(=O)Nc1ccc(-c2cccc(-c3nc4cc(F)ccc4[nH]3)c2)cc1 | 766 nM
C=CCc1cc(Br)ccc1OCCCOc1c(N)nc(N)nc1N | 192 nM
Cc1cc(N2CC=CCC2)nc(NC(=N)Nc2ccc(Br)cc2)n1 | 690 nM
Fc1ccc(COc2ccc(Nc3ncnc4ccc(I)cc34)cc2Cl)cc1 | 1180 nM
O=S(=O)(c1c(Cl)cccc1Cl)N1CCCCC(c2ccc(C(F)(F)F)cc2)=N1 | 126 nM
O=C(Nc1ccc(C(F)(F)F)cc1)c1cccc(S(=O)(=O)NC2CCN(CC3CCCCC3)C2)c1 (stereo unspecified) | 690 nM
CC(C)CC(=O)N1CCNC[C@@H]1C(=O)NC1CC1 | 1090 nM
CC[C@H]1CN2CC[C@H]1C[C@H]2[C@H](O)c1cc(-c2ccc(SC)cc2)nc2ccc(OC)cc12 | 64.1 nM
Clc1ccc2c(NCCc3ccccn3)ccnc2c1 | 832 nM
N#Cc1ccccc1C(=O)N(Cc1cncn1Cc1cccc(F)c1)CC1CC1 | 734 nM
Cn1nc(C(F)(F)F)c(-c2ccc(F)cc2)c1NC(=O)Nc1ccccc1 | 804 nM
Cc1c(CC(=O)NCCC2CCN(CCCCCNC(=O)/C=C/c3ccc(Cl)c(Cl)c3)CC2)sc2ccc(Cl)cc12 | 880 nM
Cc1ccc(NC(=O)c2ccc3ncccc3c2)cc1OC1CCN(CCC(C)C)CC1 | 694 nM
Cn1nccc1C(=O)NCCNCc1cccc(-c2cccc(-c3nc4cc(C(F)(F)F)ccc4[nH]3)c2)c1 | 172 nM
O=C(Nc1ccc(-c2nc3ccccc3[nH]2)cc1)c1ccc(Cl)s1 | 595 nM
COc1ccc(N2CCN(c3nc(Nc4ccc(NC(C)=O)cc4)nc(N4CCCC4)n3)CC2)cc1 | 976 nM
C=C[C@H]1CN(CCCCCCC)CC[C@H]1CCN(C)c1ccnc2ccc(OC)cc12 | 446 nM
CC(C)(CNC(=O)/C=C/c1ccc(C(F)(F)F)cc1)CNc1cc(=O)c2ccccc2[nH]1 | 912 nM
O=C1CSc2ccc(CNC3CCN(CCc4c(Cl)cnc5ccc(Cl)cc45)CC3)nc2N1 | 229 nM

SMILES | XC50
O=C(Nc1cccc(CN2CCCN(Cc3cccc(O)c3)CC2)c1)c1ccc(-c2ccccc2)cc1 | 641 nM
CC(C)CCN1CCC(Oc2ccc(NC(=O)c3ccco3)cc2Cl)CC1 | 676 nM
CC(CN1CCN(C)CC1)C(=O)Nc1cccc(-c2cccc(-c3nc4cc(F)ccc4[nH]3)c2)c1 (stereo unspecified) | 274 nM
COc1ccc(CNCc2ccc(-c3ccc(-c4nc5ccccc5[nH]4)cc3)cc2)cc1 | 241 nM
CC(C)c1ccc(NC(=O)NC2CCN(CCCCCN(C)C(=O)/C=C/c3ccc(Cl)c(Cl)c3)C2)cc1 (stereo unspecified) | 830 nM
CCCc1cc(Cc2cnc(N)nc2N)cc2c1OC(C)(C)C2 | 1080 nM
C=Cc1ccc(-c2c(C)[nH]c(C)c(Br)c2=O)cc1 | 556 nM
CCn1c(-c2cc(C)on2)nc2cnc(Oc3ccc(C(=O)N4CC(=O)N(C)C4C(C)(C)C)cc3)cc21 (stereo unspecified) | 1820 nM
O=C(COc1ccccc1Cl)N1CCc2cc3nccc(N4CCN5CCC[C@H]5C4)c3cc21 | 744 nM
COc1ccc(-c2ccc(NC(=O)c3cccc(Cl)c3)cc2)cc1CN1CCC(O)CC1 | 712 nM
COc1ccc(C(=O)C2CC2CN2CC=C(c3c(C)[nH]c4ccccc34)CC2)cc1 (stereo unspecified) | 304 nM
Cc1cccc(C(=O)NC(NC(=S)Nc2ccc([N+](=O)[O-])cc2)C(Cl)(Cl)Cl)c1 (stereo unspecified) | 744 nM
COC(=O)CCCCOc1c(OC)cc(Cc2cnc(N)nc2N)cc1OC | 39.3 nM
CCOCn1c(-c2ccccc2)cc2c3c(N)nc(N)nc3ccc21 | 186 nM
COc1cccc(-c2ccc(O)c(CNCCc3cccc(F)c3)c2)n1 | 914 nM
O=C(C=Cc1ccc(Cl)c(Cl)c1)NCCCCCN1CCCC(CCCNC(=O)c2cccs2)C1 (stereo unspecified) | 1300 nM
N=C(/N=C(/NCCCCCCN/C(=N/C(=N)NCc1ccc(Cl)c(Cl)c1)N1CCCCC1)N1CCCCC1)NCc1ccc(Cl)c(Cl)c1 | 567 nM
COc1cccc2sc(N3CCN(C(=O)c4ccc([N+](=O)[O-])o4)CC3)nc12 | 869 nM
COc1ccc(CCN(C)CCOc2ccc(NC(=O)c3cccc4c(=O)c5cc(SC)ccc5[nH]c34)cc2)cc1OC | 740 nM
Cc1cc(=NN=Cc2cccc(F)c2)c2cccc(C)c2[nH]1 | 770 nM
Cc1nnc2c(NC(=O)NC3CCCC3)cc3cc(-c4ccc(CN5CCN(C)CC5)cc4)ccc3n12 | 1020 nM
CC(C)c1ccc(NC(=O)c2ccc(CN3CCCN(Cc4cccc(Cl)c4)CC3)cc2)cc1 | 1160 nM
Oc1ccc(CCNc2nc(NCCCOc3cccc(CN4CCCCC4)c3Cl)nc(N3CCNCC3)n2)cc1 | 1370 nM
CN1CCc2ccc(NC(=O)Nc3cccc(C(=O)c4ccccc4)c3)cc2C1 | 917 nM

SMILES | XC50
N#Cc1cc(C(=O)Nc2ccccc2)c(N)nc1SCC(=O)NC(c1ccccc1)c1cccs1 (stereo unspecified) | 605 nM
Cc1cc(=NN=Cc2ccccc2F)c2ccccc2[nH]1 | 919 nM
CN(C)C(=O)c1ccc(CN(Cc2ccc3c(c2)OCCO3)Cc2ccc3c(c2)OCO3)cc1 | 175 nM
Cc1cc(N2CCCC2)nc(Nc2ccc(NC(=O)C(C)C)cc2)n1 | 1100 nM
O=c1[nH]c2c(cc1CNC1CCCCC1)c(-c1cccc(F)c1)nn2-c1ccccc1 | 945 nM
CN1CCC(NC(=O)c2cc(Oc3ccc4c(c3)CCN4C(=O)Nc3cccc(C(F)(F)F)c3)ccn2)CC1 | 930 nM
OCC1CCN(Cc2cccc(-c3ccc(-c4nc5cc(C(F)(F)F)ccc5[nH]4)cc3)c2)CC1 | 662 nM
O=C(Nc1ccc(Oc2ccc(OC(F)(F)F)cc2)cc1)c1ccco1 | 1130 nM
CN(CCN(C)C(=O)NCc1ccccc1)C(=O)NCc1ccccc1 | 930 nM
Cc1nc2ccc(NC(=O)c3cc(S(=O)(=O)N(C)C)ccc3Cl)cc2s1 | 816 nM
Cc1cccc(CN2CCN(c3ncc(C(=O)NC4CC4)cc3Cl)CC2)c1 | 1310 nM
Clc1cc(Nc2ncnc3cc(C#C[C@H]4CCCN4)sc23)cc2nc(Cc3ccccc3)[nH]c12 | 852 nM
Nc1nc(N)c2c(Sc3ccc(F)cc3)cccc2n1 | 1070 nM
COc1cc(-c2nc3ccc(N4CCN(C)CC4)cc3[nH]2)cc(OC)c1OC | 1270 nM
CC(C)C1C(O)=C(c2ccc3ccccc3c2)C(=O)N1Cc1ccsc1 (stereo unspecified) | 1070 nM
O=C(NC1CCCCC1)N(Cc1cccc(-c2ccc(CNC3CCCC3)cc2)c1)C1CCN(Cc2ccccc2)CC1 | 951 nM
O=C(COc1ccccc1)N(Cc1ccc(-c2ccc(CNC3Cc4ccccc4C3)cc2)cc1)C1CCNCC1 | 1020 nM
Cc1sc(N2CCCCC2)nc1C(=O)Nc1ccc(F)cc1C(F)(F)F | 1150 nM
CCCCCCn1c(Sc2ccc(C#N)c([N+](=O)[O-])c2)nnc1-c1cccs1 | 706 nM
CNC(=O)c1cncc(/C=C/c2ccccc2S(N)(=O)=O)c1 | 694 nM
COc1ccccc1N1CCN(C(C(=O)NCc2ccc3c(c2)OCO3)c2ccc(C)cc2)CC1 (stereo unspecified) | 985 nM
CCOc1cc(NCCSCc2nc[nH]c2C)nc2ccccc12 | 792 nM
Cc1ccc(C2CCN(CCCCNC(=O)c3ccc(NC(=O)c4ccc(Cl)cc4)cc3)CC2)c(OCC(F)(F)F)c1 | 284 nM
Cc1ccccc1C1CCN(C2CCC(NC(=O)/C=C/c3cccc(Cl)c3Cl)CC2)CC1 (stereo unspecified) | 1030 nM
